Patent publication US5712265A (The General Hospital Corporation, priority 1995, dated 1998)
Where a name gives a salt, the structure may show the parent alone. Read-outs that look alike come from different tables or passages of the source.

Assays:
[1] = 2.5 mg once, cited from earlier work
[2] = 7.5 to 20 mg daily by mouth; cited from earlier work
[3] = in vivo; cited from earlier work
[4] = in vivo; cited from earlier work; remark: listed apart in the source
[5] = test system: 3-hydroxy-3-methylglutaryl coenzyme A (HMG-CoA) reductase; settings: cited from earlier work
[6] = Timed administration of methyl scopolamine, long-term effects (Example 7); assay type: in vivo, Sprague-Dawley rat; settings: for Retroperitoneal Fat: 0.5 mg/kg BW two weeks
Description: Methylscopolamine (MSC) (0.5 mg/kgBW) in 1 mL peanut butter was fed at light onset (AM) or at light offset (PM) to 9 Sprague-Dawley rats (30 weeks old) in each group daily for two weeks. Nine-other rats were fed only peanut butter. 18 days after the last treatment, the rats were sacrificed and the indices in Table 6 were measured.

[7] = in vivo; cited from earlier work; remark: listed apart in the source
[8] = 0.5 or 0.75 mg s.c., cited from earlier work
[9] = cited from earlier work
[10] = in vivo; cited from earlier work; remark: listed apart in the source
[11] = for Cholesterol / HDL-Chol / Plasma Glucose / Plasma Insulin / Reproperitoneal Fat / Triglyceride: 18 days after last treatment; for Food Consumption: P 4 mg/kg or M 500 μg/kg oral, two weeks
Description: Forty male older Sprague-Dawley rats (6 months of age) were separated into 5 groups of 8 rats each. […] A control group (C) received peanut butter only daily at 0800 and 1800. Rat chow (Purina) was made available ad libitum. Treatment lasted two weeks. Blood samples were taken and retroperitoneal fat was dissected and weighed 18 days after the last day of treatment. This made it possible to assess long term effects of the treatment. […] All animals were fasted 6 hours prior to blood sampling and sacrifice.

[12] = 5 mg at 2230 h; cited from earlier work
[13] = 0.5 mg intramuscularly, cited from earlier work
[14] = test system: adipose tissue cyclic AMP phosphodiesterase; settings: cited from earlier work
isolated fat cells = settings: in vitro; cited from earlier work
[15] = 3.0 and 6.0 μg/kg intramuscularly at 11:00 pm; cited from earlier work
[16] = cited from earlier work; remark: listed apart in the source
[17] = AM, 18 days after last treatment
[18] = PM, 18 days after last treatment
[19] = light-offset vs light-onset administration
[20] = dosed at 0800, 18 days post-treatment

Which plasma glucose concentration ([1]; 2 h prior to glucose challenge) does the source give for `CC(C)C[C@H]1C(=O)N2CCC[C@H]2[C@]2(O)O[C@](NC(=O)[C@@H]3C=C4c5cccc6[nH]c(Br)c(c56)C[C@H]4N(C)C3)(C(C)C)C(=O)N12` [bromocriptine] here?
Its plasma glucose concentration is “decrease”.

And the Plasma Insulin [1]?
Its Plasma Insulin is “decrease with drug administration was significant”.

And the plasma prolactin levels [1]?
Its plasma prolactin levels is “decreased markedly”.

And the patients having aggravation [2]?
The patients having aggravation was 4.

And the “patients having improvement in glucose regulation” value [2]?
The value was “six”.

And the “patients showing no significant change” value [2]?
The value was 14.

For `CCOC(=O)C(C)(C)Oc1ccc(Cl)cc1` [clofibrate], which effectiveness [3] is on record?
Its effectiveness is “varies from subject to subject”.

What about the side effects [3] of the same compound?
Its side effects is “nephrotic syndromes, myalgia, nausea and abdominal pain”.

Which “increase in HDL concentrations” value [4] does the source give for `CC[C@H](C)C(=O)O[C@H]1C[C@@H](C)C=C2C=C[C@H](C)[C@H](CC[C@@H]3C[C@@H](O)CC(=O)O3)[C@H]21` [lovastatin] here?
The value was 5-10%.

And the total cholesterol [4]?
The total cholesterol was “specifically reduces total cholesterol”.

And the HMG-CoA reductase inhibition [5]?
The HMG-CoA reductase inhibition was “selectively inhibits”.

With `C[N+]1(C)[C@@H]2C[C@@H](OC(=O)[C@H](CO)c3ccccc3)C[C@H]1[C@@H]1O[C@@H]12` [methyl scopolamine] as the compound, how does the “Retroperitoneal Fat” value ([6]; AM (light onset), 18 days after last treatment) read?
Its value is 2.78 ± 0.08 g.

And the Cholesterol [6, 17]?
Its Cholesterol is 94.7 ± 4.9 mg/dL.

And the Glucose [6, 17]?
Its Glucose is 151.8 ± 19.6 mg/dL.

And the “HDL Cholesterol” value [6, 17]?
Its value is 32.5 ± 4.1 mg/dL.

What about the Insulin [6, 17] of the same compound?
Its Insulin is 144.1 ± 5.9 μU/mL.

What about the Triglycerides [6, 17] of the same compound?
The Triglycerides was 197 ± 18 mg/dL.

And the “Retroperitoneal Fat” value ([6]; PM (light offset), 18 days after last treatment)?
Its value is 2.45 ± 0.07 g.

And the Cholesterol [6, 18]?
The Cholesterol was 94.1 ± 5.7 mg/dL.

And the “HDL Cholesterol” value [6, 18]?
Its value is 45.2 ± 4.2 mg/dL.

And the Insulin [6, 18]?
The Insulin was 163.8 ± 2.7 μU/mL.

And the Triglycerides [6, 18]?
Its Triglycerides is 106 ± 21 mg/dL.

And the “persistence after cessation of treatment” value ([6]; Table 6)?
Its value is “long-term effect that persists after cessation of the treatment”.

What about the “glucose, change in words” value ([6]; light onset or offset) of the same compound?
Its value is “significantly reduced”.

And the “insulin, change in words” value ([6]; light onset or offset)?
The value was “significantly reduced”.

What about the “retroperitoneal fat, change in words” value ([6]; light onset or offset) of the same compound?
The value was “significantly reduced”.

What about the “cholesterol, change in words” value [6, 19] of the same compound?
The value was “significantly increased cholesterol”.

And the “insulin, change in words” value [6, 19]?
The value was “significantly reduced triglycerides and insulin”.

And the “triglycerides, change in words” value [6, 19]?
Its value is “significantly reduced triglycerides”.

And the “HDL, change in words” value ([6]; only at light offset)?
Its value is “increased HDL”.

What about the “triglycerides, change in words” value ([6]; only at light offset) of the same compound?
The value was “significantly reduced”.

What about the half-life [7] of the same compound?
Its half-life is 4 to 6 h.

What about the “elevated AVP levels” value ([8]; after physostigmine) of the same compound?
Its value is “decreased”.

What about the elevated cortisol levels ([8]; after physostigmine) of the same compound?
The elevated cortisol levels was “decreased”.

And the elevated prolactin levels ([8]; after physostigmine)?
The elevated prolactin levels was “decreased”.

What about the growth hormone secretion [8] of the same compound?
Its growth hormone secretion is “inhibited”.

What about the tolerability ([9]; chronic use of 5 mg) of the same compound?
The tolerability was “not particularly well tolerated by most patients”.

What about the dawn phenomenon ([9]; given at bedtime) of the same compound?
Its dawn phenomenon is “attenuated”.

And the “sleep induced growth hormone secretion” value ([9]; given at bedtime)?
Its value is “suppressed”.

What about the “effect of physostigmine on plasma pituitary hormones (cortisol, prolactin, ACTH)” value [10] of the same compound?
The value was “inhibited”.

And the “food consumption, change in words” value ([11]; dosed at 0800)?
Its value is “significant increase”.

What about the “insulin resistance (plasma insulin and glucose), in words” value [11, 20] of the same compound?
The value was “improved insulin resistance”.

And the “plasma lipid indices, change in words” value [11, 20]?
Its value is “significantly reduced retroperitoneal body fat, plasma lipid indices”.

What about the “retroperitoneal body fat, change in words” value [11, 20] of the same compound?
Its value is “significantly reduced retroperitoneal body fat”.

And the Cholesterol ([11]; dosed at 0800)?
Its Cholesterol is 96.8 ± 1.8 mg/dL.

What about the HDL-Chol ([11]; dosed at 0800) of the same compound?
The HDL-Chol was 43.9 ± 2.7 mg/dL.

And the “Plasma Glucose” value ([11]; dosed at 0800)?
Its value is 158 ± 4.

And the “Plasma Insulin” value ([11]; dosed at 0800)?
The value was 118 ± 7.

What about the “Reproperitoneal Fat” value ([11]; dosed at 0800) of the same compound?
The value was 2.18 ± 0.31 g.

And the Triglyceride ([11]; dosed at 0800)?
Its Triglyceride is 90.0 ± 3.1 mg/dL.

And the “Food Consumption” value ([11]; dosed at 0800)?
The value was 17.5 ± 1.3 g/day.

And the Cholesterol ([11]; dosed at 1800)?
Its Cholesterol is 133.6 ± 1.9 mg/dL.

What about the HDL-Chol ([11]; dosed at 1800) of the same compound?
The HDL-Chol was 61.0 ± 1.9 mg/dL.

What about the “Plasma Glucose” value ([11]; dosed at 1800) of the same compound?
The value was 148 ± 7.

And the “Plasma Insulin” value ([11]; dosed at 1800)?
The value was 171 ± 14.

And the “Reproperitoneal Fat” value ([11]; dosed at 1800)?
Its value is 2.61 ± 0.19 g.

And the Triglyceride ([11]; dosed at 1800)?
Its Triglyceride is 188.0 ± 5.7 mg/dL.

And the “Food Consumption” value ([11]; dosed at 1800)?
The value was 14.9 ± 1.0 g/day.

What about the “HDL-cholesterol, change in words” value ([11]; only with administration at 1800) of the same compound?
Its value is “increase”.

What about the dawn effect [12] of the same compound?
Its dawn effect is “decrease”.

And the “peak growth hormone concentrations after sleep” value [12]?
Its value is “marked inhibition”.

What about the “overall and mean peak growth hormone levels during the night” value ([13]; 1/2 h before bedtime) of the same compound?
The value was “dramatically reduced”.

What about the insulin-induced hypoglycemia [13] of the same compound?
Its insulin-induced hypoglycemia is “did not affect sleep patterns or insulin-induced hypoglycemia”.

And the “prolactin levels during sleep” value [13]?
Its value is “did not affect prolactin levels during sleep”.

What about the sleep patterns [13] of the same compound?
Its sleep patterns is “did not affect sleep patterns”.

With `CN1CCN(CC(=O)N2c3ccccc3C(=O)Nc3cccnc32)CC1` [pirenzepine] as the compound, how does the half-life [7] read?
The half-life was “about 11 hours”.

Which “adipose tissue cyclic AMP phosphodiesterase activity” value [14] does the source give for `CN1[C@@H]2C[C@@H](OC(=O)[C@H](CO)c3ccccc3)C[C@H]1[C@@H]1O[C@@H]12` [scopolamine hydrobromide] here?
The value was “nor inhibited”.

And the “glycerol release from isolated fat cells” value (isolated fat cells)?
Its value is “did not significantly affect”.

Which results are given for `CN1[C@@H]2C[C@@H](OC(=O)[C@H](CO)c3ccccc3)C[C@H]1[C@@H]1O[C@@H]12` [scopolamine]?
rapid eye movement latency [15]: significant dose-related delay; susceptibility to motion sickness ([16]; 0.01 mg/kg orally 2 h before rotation): significantly decreased; hormone concentrations (ACTH, cortisol, STH, prolactin) vs placebo ([16]; 0.01 mg/kg orally): identical
